pKi: −log10 of the molar value. *1 amine or outer side, *2 acyl side, *3 side chain or, on linkers, in order; H or OH if unused. Where a SMILES comes first, the peptide text is derived from it. Side-chain parts run from the residue outwards. [ ]: non-standard residue; d: D form. The star is where a group is joined. C20 diacid = O=C(O)CCCCCCCCCCCCCCCCCCC(=O)*; C18 diacid = O=C(O)CCCCCCCCCCCCCCCCC(=O)*; γGlu = O=C(O)[C@H](CCC(=O)[*:2])N[*:1]; 4Pal = N[C@@H](Cc1ccncc1)C(=O)O; AEEA = NCCOCCOCC(=O)O; Aib = CC(C)(N)C(=O)O
How the values were obtained:
[1] = molecular target: T1, human GLP-1 receptor (GLP-1R) (Homo sapiens, UniProt P43220); test: cAMP functional assay (HTRF) in HEK293 cells in presence of 0.1% casein; format: cell-based; conditions: HEK293 cells expressing human GLP-1R, geometric mean, read-out: hGLP1R cAMP Rel EC50 nM (SEM, n)
T1 construct: expressed in transfected cells; host or cells: HEK293

human GcgR = molecular target: T2, human GcgR (Homo sapiens, UniProt P47871); test: [125I]-Glucagon binding, SPA with WGA beads, 0.1% bacitracin; conditions: geometric mean, read-out: hGcgR Ki
T2 construct: expressed in transfected cells; crude membranes
How it was run: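 SPA competition binding with WGA beads on crude membranes from HEK293 cells stably expressing hGcgR. Buffer: 25 mM HEPES pH 7.4, 2.5 mM CaCl2, 1 mM MgCl2, 0.1% bacitracin, 0.003% Tween-20; 10-point 3-fold dilutions, NSB with 1 μM Gcg.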

T1 sequence (P43220 24-463): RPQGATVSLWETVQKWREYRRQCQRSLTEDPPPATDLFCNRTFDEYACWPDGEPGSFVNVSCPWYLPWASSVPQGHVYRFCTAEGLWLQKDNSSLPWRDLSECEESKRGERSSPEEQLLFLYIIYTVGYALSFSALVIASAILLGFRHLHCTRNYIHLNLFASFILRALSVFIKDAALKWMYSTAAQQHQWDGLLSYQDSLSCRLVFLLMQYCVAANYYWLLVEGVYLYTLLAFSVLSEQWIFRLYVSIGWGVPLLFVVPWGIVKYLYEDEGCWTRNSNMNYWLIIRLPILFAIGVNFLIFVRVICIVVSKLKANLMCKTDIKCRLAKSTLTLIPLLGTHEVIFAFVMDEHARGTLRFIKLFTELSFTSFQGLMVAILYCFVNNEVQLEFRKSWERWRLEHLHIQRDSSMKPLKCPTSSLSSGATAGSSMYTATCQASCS
T2 sequence (P47871 26-477): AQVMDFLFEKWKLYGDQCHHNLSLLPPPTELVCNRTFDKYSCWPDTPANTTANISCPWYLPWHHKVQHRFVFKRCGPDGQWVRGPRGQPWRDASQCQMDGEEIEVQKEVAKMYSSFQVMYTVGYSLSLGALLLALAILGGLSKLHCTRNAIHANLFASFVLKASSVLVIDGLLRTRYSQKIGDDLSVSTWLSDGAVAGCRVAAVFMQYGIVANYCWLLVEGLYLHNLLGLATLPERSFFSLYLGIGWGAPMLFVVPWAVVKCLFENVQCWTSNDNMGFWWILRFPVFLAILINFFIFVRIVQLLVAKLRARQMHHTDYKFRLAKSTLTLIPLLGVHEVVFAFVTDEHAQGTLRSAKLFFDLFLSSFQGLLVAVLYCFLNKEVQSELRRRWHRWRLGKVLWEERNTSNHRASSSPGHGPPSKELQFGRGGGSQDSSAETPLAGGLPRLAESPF

SMILES	EC50 [1] [nM]	pKi (human GcgR)
CC[C@H](C)[C@H](NC(=O)[C@H](CO)NC(=O)[C@H](Cc1ccc(O)cc1)NC(=O)[C@H](CC(=O)O)NC(=O)[C@H](CO)NC(=O)[C@@H](NC(=O)[C@H](Cc1ccccc1)NC(=O)[C@@H](NC(=O)CNC(=O)[C@H](CCC(=O)O)NC(=O)[C@@H](C)NC(=O)[C@@H](N)Cc1ccc(O)cc1)[C@@H](C)O)[C@@H](C)CC)C(=O)N[C@@H](CC(C)C)C(=O)N[C@@H](CC(C)C)C(=O)N[C@@H](CC(=O)O)C(=O)N[C@@H](CCCCN)C(=O)N[C@@H](CCCCNC(=O)COCCOCCNC(=O)COCCOCCNC(=O)CC[C@H](NC(=O)CCCCCCCCCCCCCCCCCCC(=O)O)C(=O)O)C(=O)N[C@@H](Cc1c[nH]cn1)C(=O)N[C@@H](CCC(N)=O)C(=O)N[C@@H](CCC(N)=O)C(=O)N[C@@H](CC(=O)O)C(=O)N[C@@H](Cc1ccccc1)C(=O)N[C@H](C(=O)N[C@@H](CCC(=O)O)C(=O)N[C@@H](Cc1c[nH]c2ccccc12)C(=O)N[C@@H](CC(C)C)C(=O)N[C@@H](CC(C)C)C(=O)N[C@@H](C)C(=O)N[C@@H](CCC(N)=O)C(=O)NCC(=O)N1CCC[C@H]1C(=O)N[C@@H](CO)C(=O)N[C@@H](CO)C(=O)NCC(=O)N[C@@H](C)C(=O)N1CCC[C@H]1C(=O)N1CCC[C@H]1C(=O)N1CCC[C@H]1C(=O)N[C@@H](CO)C(N)=O)C(C)C [Example 14] (H-Y[dA]EGTFISDYSILLDKK([AEEA-AEEA-γGlu-C20 diacid])HQQDFVEWLLAQGPSSGAPPPS-NH2)	> 100	< 6.64
CC[C@H](C)[C@H](NC(=O)[C@H](CO)NC(=O)[C@H](Cc1ccc(O)cc1)NC(=O)[C@H](CC(=O)O)NC(=O)[C@H](CO)NC(=O)[C@@H](NC(=O)[C@H](Cc1ccccc1)NC(=O)[C@@H](NC(=O)CNC(=O)[C@H](CCC(=O)O)NC(=O)[C@@H](C)NC(=O)[C@@H](N)Cc1ccc(O)cc1)[C@@H](C)O)[C@@H](C)CC)C(=O)N[C@@H](CC(C)C)C(=O)N[C@@H](CC(C)C)C(=O)N[C@@H](CC(=O)O)C(=O)N[C@@H](CCCCN)C(=O)N[C@@H](CCCCNC(=O)COCCOCCNC(=O)COCCOCCNC(=O)CC[C@H](NC(=O)CCCCCCCCCCCCCCCCCCC(=O)O)C(=O)O)C(=O)N[C@@H](Cc1c[nH]cn1)C(=O)N[C@@H](CCC(N)=O)C(=O)N[C@@H](CCC(N)=O)C(=O)N[C@@H](CC(=O)O)C(=O)N[C@@H](Cc1ccccc1)C(=O)N[C@H](C(=O)N[C@@H](CC(N)=O)C(=O)N[C@@H](Cc1ccc(O)cc1)C(=O)N[C@@H](CC(C)C)C(=O)N[C@@H](CC(C)C)C(=O)N[C@@H](C)C(=O)N[C@@H](CCC(N)=O)C(=O)NCC(=O)N1CCC[C@H]1C(=O)N[C@@H](CO)C(=O)N[C@@H](CO)C(=O)NCC(=O)N[C@@H](C)C(=O)N1CCC[C@H]1C(=O)N1CCC[C@H]1C(=O)N1CCC[C@H]1C(=O)N[C@@H](CO)C(N)=O)C(C)C [Example 15] (H-Y[dA]EGTFISDYSILLDKK([AEEA-AEEA-γGlu-C20 diacid])HQQDFVNYLLAQGPSSGAPPPS-NH2)	> 100	< 6.60
CC[C@H](C)[C@H](NC(=O)[C@H](CO)NC(=O)[C@H](Cc1ccc(O)cc1)NC(=O)[C@H](CC(=O)O)NC(=O)[C@H](CO)NC(=O)[C@@H](NC(=O)[C@H](Cc1ccccc1)NC(=O)[C@@H](NC(=O)CNC(=O)[C@H](CCC(=O)O)NC(=O)[C@@H](C)NC(=O)[C@@H](N)Cc1ccc(O)cc1)[C@@H](C)O)[C@@H](C)CC)C(=O)N[C@@H](CC(C)C)C(=O)N[C@@H](CC(C)C)C(=O)N[C@@H](CC(=O)O)C(=O)N[C@@H](CCCCN)C(=O)N[C@@H](CCCCNC(=O)COCCOCCNC(=O)COCCOCCNC(=O)CC[C@H](NC(=O)CCCCCCCCCCCCCCCCC(=O)O)C(=O)O)C(=O)N[C@@H](C)C(=O)N[C@@H](CCC(N)=O)C(=O)NC(C)(C)C(=O)N[C@@H](CC(=O)O)C(=O)N[C@@H](Cc1ccccc1)C(=O)N[C@H](C(=O)N[C@@H](CCC(=O)O)C(=O)N[C@@H](Cc1c[nH]c2ccccc12)C(=O)N[C@@H](CC(C)C)C(=O)N[C@@H](CC(C)C)C(=O)N[C@@H](C)C(=O)N[C@@H](CCC(N)=O)C(=O)NCC(=O)N1CCC[C@H]1C(=O)N[C@@H](CO)C(=O)N[C@@H](CO)C(=O)NCC(=O)N[C@@H](C)C(=O)N1CCC[C@H]1C(=O)N1CCC[C@H]1C(=O)N1CCC[C@H]1C(=O)N[C@@H](CO)C(N)=O)C(C)C [Example 16] (H-Y[dA]EGTFISDYSILLDKK([AEEA-AEEA-γGlu-C18 diacid])AQ[Aib]DFVEWLLAQGPSSGAPPPS-NH2)	> 5000	6.26
CC[C@H](C)[C@H](NC(=O)[C@H](CO)NC(=O)[C@H](Cc1ccc(O)cc1)NC(=O)[C@H](CC(=O)O)NC(=O)[C@H](CO)NC(=O)[C@@H](NC(=O)[C@H](Cc1ccccc1)NC(=O)[C@@H](NC(=O)CNC(=O)[C@H](CCC(=O)O)NC(=O)[C@@H](C)NC(=O)[C@@H](N)Cc1ccc(O)cc1)[C@@H](C)O)[C@@H](C)CC)C(=O)N[C@@H](CC(C)C)C(=O)N[C@@H](CC(C)C)C(=O)N[C@@H](CC(=O)O)C(=O)N[C@@H](CCCCN)C(=O)N[C@@H](CCCCNC(=O)COCCOCCNC(=O)COCCOCCNC(=O)CC[C@H](NC(=O)CCCCCCCCCCCCCCCCC(=O)O)C(=O)O)C(=O)N[C@@H](C)C(=O)N[C@@H](CCC(N)=O)C(=O)NC(C)(C)C(=O)N[C@@H](CC(=O)O)C(=O)N[C@@H](Cc1ccccc1)C(=O)N[C@H](C(=O)N[C@@H](CC(N)=O)C(=O)N[C@@H](Cc1c[nH]c2ccccc12)C(=O)N[C@@H](CC(C)C)C(=O)N[C@@H](CC(C)C)C(=O)N[C@@H](CCC(=O)O)C(=O)N[C@@H](CCC(N)=O)C(=O)NCC(=O)N1CCC[C@H]1C(=O)N[C@@H](CO)C(=O)N[C@@H](CO)C(=O)NCC(=O)N[C@@H](C)C(=O)N1CCC[C@H]1C(=O)N1CCC[C@H]1C(=O)N1CCC[C@H]1C(=O)N[C@@H](CO)C(N)=O)C(C)C [Example 17] (H-Y[dA]EGTFISDYSILLDKK([AEEA-AEEA-γGlu-C18 diacid])AQ[Aib]DFVNWLLEQGPSSGAPPPS-NH2)	> 5000	6.56
CC[C@H](C)[C@H](NC(=O)[C@H](CO)NC(=O)[C@H](Cc1ccc(O)cc1)NC(=O)[C@H](CC(=O)O)NC(=O)[C@H](CO)NC(=O)[C@@H](NC(=O)[C@H](Cc1ccccc1)NC(=O)[C@@H](NC(=O)CNC(=O)[C@H](CCC(=O)O)NC(=O)[C@@H](C)NC(=O)[C@@H](N)Cc1ccc(O)cc1)[C@@H](C)O)[C@@H](C)CC)C(=O)N[C@@H](CC(C)C)C(=O)N[C@@H](CC(C)C)C(=O)N[C@@H](CC(=O)O)C(=O)N[C@@H](CCCCN)C(=O)N[C@@H](CCCCNC(=O)COCCOCCNC(=O)COCCOCCNC(=O)CC[C@H](NC(=O)CCCCCCCCCCCCCCCCC(=O)O)C(=O)O)C(=O)N[C@@H](C)C(=O)N[C@@H](CCC(N)=O)C(=O)NC(C)(C)C(=O)N[C@@H](CC(=O)O)C(=O)N[C@@H](Cc1ccccc1)C(=O)N[C@H](C(=O)N[C@@H](CC(N)=O)C(=O)N[C@@H](Cc1ccncc1)C(=O)N[C@@H](CC(C)C)C(=O)N[C@@H](CC(C)C)C(=O)N[C@@H](C)C(=O)N[C@@H](CCC(N)=O)C(=O)NCC(=O)N1CCC[C@H]1C(=O)N[C@@H](CO)C(=O)N[C@@H](CO)C(=O)NCC(=O)N[C@@H](C)C(=O)N1CCC[C@H]1C(=O)N1CCC[C@H]1C(=O)N1CCC[C@H]1C(=O)N[C@@H](CO)C(N)=O)C(C)C [Example 18] (H-Y[dA]EGTFISDYSILLDKK([AEEA-AEEA-γGlu-C18 diacid])AQ[Aib]DFVN[4Pal]LLAQGPSSGAPPPS-NH2)	> 5000	6.33
CC[C@H](C)[C@H](NC(=O)[C@H](CO)NC(=O)[C@H](Cc1ccc(O)cc1)NC(=O)[C@H](CC(=O)O)NC(=O)[C@H](CO)NC(=O)[C@@H](NC(=O)[C@H](Cc1ccccc1)NC(=O)[C@@H](NC(=O)CNC(=O)[C@H](CCC(=O)O)NC(=O)[C@@H](C)NC(=O)[C@@H](N)Cc1ccc(O)cc1)[C@@H](C)O)[C@@H](C)CC)C(=O)N[C@@H](CC(C)C)C(=O)N[C@@H](CC(C)C)C(=O)N[C@@H](CC(=O)O)C(=O)N[C@@H](CCCCN)C(=O)N[C@@H](CCCCNC(=O)COCCOCCNC(=O)COCCOCCNC(=O)CC[C@H](NC(=O)CCCCCCCCCCCCCCCCC(=O)O)C(=O)O)C(=O)N[C@@H](C)C(=O)N[C@@H](CCC(N)=O)C(=O)NC(C)(C)C(=O)N[C@@H](CC(=O)O)C(=O)N[C@@H](Cc1ccccc1)C(=O)N[C@H](C(=O)N[C@@H](CC(N)=O)C(=O)N[C@@H](Cc1c[nH]c2ccccc12)C(=O)N[C@@H](CC(C)C)C(=O)N[C@@H](CC(C)C)C(=O)N[C@@H](C)C(=O)NCC(=O)NCC(=O)N1CCC[C@H]1C(=O)N[C@@H](CO)C(=O)N[C@@H](CO)C(=O)NCC(=O)N[C@@H](C)C(=O)N1CCC[C@H]1C(=O)N1CCC[C@H]1C(=O)N1CCC[C@H]1C(=O)N[C@@H](CO)C(N)=O)C(C)C [Example 19] (H-Y[dA]EGTFISDYSILLDKK([AEEA-AEEA-γGlu-C18 diacid])AQ[Aib]DFVNWLLAGGPSSGAPPPS-NH2)	> 5000	6.47
CC[C@H](C)[C@H](NC(=O)[C@H](CO)NC(=O)[C@H](Cc1ccc(O)cc1)NC(=O)[C@H](CC(=O)O)NC(=O)[C@H](CO)NC(=O)[C@@H](NC(=O)[C@H](Cc1ccccc1)NC(=O)[C@@H](NC(=O)CNC(=O)[C@H](CCC(=O)O)NC(=O)[C@@H](C)NC(=O)[C@@H](N)Cc1ccc(O)cc1)[C@@H](C)O)[C@@H](C)CC)C(=O)N[C@@H](CC(C)C)C(=O)N[C@@H](CC(C)C)C(=O)N[C@@H](CC(=O)O)C(=O)N[C@@H](CCCCN)C(=O)N[C@@H](CCCCNC(=O)COCCOCCNC(=O)COCCOCCNC(=O)CC[C@H](NC(=O)CCCCCCCCCCCCCCCCC(=O)O)C(=O)O)C(=O)N[C@@H](C)C(=O)N[C@@H](CCC(N)=O)C(=O)NC(C)(C)C(=O)N[C@@H](CCC(=O)O)C(=O)N[C@@H](Cc1ccccc1)C(=O)N[C@H](C(=O)N[C@@H](CC(N)=O)C(=O)N[C@@H](Cc1c[nH]c2ccccc12)C(=O)N[C@@H](CC(C)C)C(=O)N[C@@H](CC(C)C)C(=O)N[C@@H](C)C(=O)N[C@@H](CCC(N)=O)C(=O)NCC(=O)N1CCC[C@H]1C(=O)N[C@@H](CO)C(=O)N[C@@H](CO)C(=O)NCC(=O)N[C@@H](C)C(=O)N1CCC[C@H]1C(=O)N1CCC[C@H]1C(=O)N1CCC[C@H]1C(=O)N[C@@H](CO)C(N)=O)C(C)C [Example 20] (H-Y[dA]EGTFISDYSILLDKK([AEEA-AEEA-γGlu-C18 diacid])AQ[Aib]EFVNWLLAQGPSSGAPPPS-NH2)	> 5000	6.67

From patent publication US12723063B2, “GIPR-agonist compounds” (Eli Lilly and Company, priority 2019, dated 2026)
